What was measured:
[1] = test system: Carboxypeptidasen
[2] = test system: einigen Bakterien; assay: Antibacterial activity of free amino acid antagonists; format: cell-based; settings: lost when built into the tripeptides
[3] = test system: Candida albicans; assay: Growth inhibition / minimal inhibitory concentration in yeast nitrogen base medium; format: cell-based
Description: Die weiteren Untersuchungen dieser fünf Tripeptide gegenüber Cadida albicans und Candida pseudotropicalis in »yeast nitrogen base« Medium mit einer Zellzahl von 10^4/ml zu Testbeginn führten zu dem Ergebnis, daß diese Tripeptide keinerlei Wachstumshemmung zeigen. Die Tripeptide werden dabei bis zu einer Konzentration von 10 mg/ml Testmedium beurteilt. Bei den Tripeptiden L-Arg-D-Val-L-Phe und L-Arg-D-Ala-L-Phe werden im Gegenteil sogar Wachstumsförderung von Candida albicans festgestellt.
In der beigefügten Tabelle I sind die kleinsten inhibierenden Konzentrationen der beiden beispielsweisen erfindungsgemäßen Tripeptide 1 und 2 denjenigen der freien Antimetaboliten gegenübergestellt anhand des Beispiels candida albicans. Die Untersuchungen wurden in einem yeast nitrogen base Medium mit einem Glukosegehalt von 2% und einem pH-Wert von 7,2 durchgeführt. Die Zellzahl zu Versuchsbeginn beläuft sich auf 10^4/ml. Die Tests werden in Mikrotiterschalen durchgeführt und es wird 24 Stunden bei 30° C inkubiert.

[4] = dissertation Universität Tübingen 1975; cited from earlier work

| Compound | durch Carboxypeptidasen spaltbar [1] | Wirksamkeit gegenüber einigen Bakterien [2] | also measured |
| --- | --- | --- | --- |
| CC(=O)N[C@@H](CCCNC(=N)N)C(=O)NC(Cc1ccc(F)cc1)C(=O)N[C@@H](Cc1ccccc1)C(=O)O (mixture of isomers) [Verbindung 3, N 1-Acetyl-L-arginyl-DL-(p-fluorphenylalanyl)-L-phenyialanin] | schwerer spaltbar | – | – |
| N=C(N)NCCC[C@H](N)C(=O)NC(Cc1ccc(F)cc1)C(=O)N[C@@H](Cc1ccccc1)C(N)=O (mixture of isomers) [Verbindung 4, L-Arginyl-DL-(p-fluorphenylalanyl)-L-phenylalaninamid] | schwerer spaltbar | – | – |
| NC(Cc1ccc(F)cc1)C(=O)O (racemic) [p-F-DL-Phenylalanin] | – | Wirksamkeit zeigen | Wirksamkeit gegen candida albicans [3]: nicht wirksam; MIC ([3]; 24 h, all tested Candida albicans isolates, read-out: inhibierende Konzentration): > 256 µg/mL |
| NC(Cc1cccs1)C(=O)O (racemic) [β-2-DL-Thienylalanin] | – | Wirksamkeit zeigen | – |
| L-Arginyl-D-allothreonyl-L-phenylalanin | – | – | antifungische Wirksamkeit [4]: antifungische Wirksamkeit |
